# What was measured:
# [1] = Photoreactivity assessment (photo DSC enthalpy of polymerization); type: physicochemical; details: for experimental ΔH as % of the calculated ΔH: 3% photoacid
# From the text: In this example, the photoreactivity of various combinations of SIL-MIX alone or SIL-MIX with 3,9-diethyl-3,9-bis(allyloxymethyl)-1,5,7,11-tetraoxaspiro[5.5]undecane (DEBAOM-1,5,7,11-TOSU) 1; 3,9-bis(3-trimethylsilylpropyl)-1,5,7,11-tetraoxaspiro[5.5]undecane (BTMSP-1,5,7,11-TOSU) 2; 3,9-bis(allyloxymethyl)-2,4,8,10-tetraoxaspiro[5.5]undecane (BAOM-2,4,8,10-TOSU) 3; 3,9-bis(2-trimethylsilylethyl)-[…] (BTMSE-2,4,8,10-TOSU) 4; 3,3-diethyl-11,12-epoxy-1,5,7,16-tetraoxadispiro[5.2.5.2]hexadecane (DECHE-1,5,7,11-TOSU) 5; and 3,9-diethyl-3,9-bis(3-trimethylsilylpropyloxymethyl)-1,5,7,11-tetraoxaspiro[5.5]-undecane (DEBTMSPOM-1,5,7,11-TOSU) 6 was investigated. The photoreactivity assessments (n=1) were made using an EXFO Novacure light curing unit interfaced with a Perkin-Elmer Diamond DSC. The experimental conditions were as follows: 25° C.; N2 atmosphere; 400-500 nm light; 3 mm quartz light guides; output: 500 mW/cm measured 15 mm from sample surface. The sample weights were 15-18 mg. Standard A1 pans were used. An empty pan was placed in the reference position. Irradiation time was for 10 minutes following a 1 minute equilibration. After the initial run, the sample was re-irradiated for an additional 10 minutes. This second curve was subtracted from the initial exotherm curve to zero out artifacts due to beginning and ending of irradiation, and to compensate for the heat capacity differences between the sample pan and empty reference pan. Integrations were from time t=1.1 (lamp shutter opened) min to 11.1 min (lamp shutter closed).
# In this example, reaction mixtures containing 0 or 20 mol % of TOSU monomers 1, 2, 3, 4, and 5 in SIL-MIX were formulated with 4.1 wt % photoinitiator system (3 wt % PI; 1 wt % CQ; 0.1 wt % ED). Formulated mixtures were heated for 5 minutes on an oil bath at about 60° C. and stirred magnetically to aid dissolution of the photoinitiator system and inventive monomer. Formulations were prepared and stored away from ambient light. Mixtures were tested for photoreactivity the same day as prepared.
# The effect of doubling the photoinitiator (PI) content from 3 wt % to 6 wt % was also determined for selected mixtures. As in Example 7(a) above, reaction mixtures (about 2 g) were formulated with 4.1 wt % photoinitiator system (3 wt % PI; 1 wt % CQ; 0.1 wt % ED) except where noted. Formulated mixtures were heated for 5 minutes on an oil bath @ 60° C. and stirred magnetically to dissolve the photoinitiator system and 6 (DEBTMSPOM-1,5,7,11-TOSU) when included. Formulations were prepared and stored away from ambient light and tested the same day as prepared.
smiles,measurement,setting,value
"CCC1(COCCC[Si](C)(C)C)COC2(OC1)OCC(CC)(COCCC[Si](C)(C)C)CO2 (centres unmarked) [Monomer 6, 3,9-diethyl-3,9-bis(3-trimethylsilylpropyloxymethyl)-1,5,7,11-tetraoxaspiro[5.5]undecane]",melting point,,44.27 °C
same,ΔHexp,"[1]; 3 wt % PI, 10 mol % in SIL-MIX",-124 J/g
same,ΔHexp,"[1]; 3 wt % PI, 25 mol % in SIL-MIX",-86 J/g
same,ΔHcalc,"[1]; 3 wt % PI, calculated for inert diluent instead of TOSU at 10 mol %",-174 J/g
same,ΔHcalc,"[1]; 3 wt % PI, calculated for inert diluent instead of TOSU at 25 mol %",-145 J/g
same,ΔHexp,"[1]; 6 wt % PI, 10 mol % in SIL-MIX",-127 J/g
same,ΔHexp,"[1]; 6 wt % PI, 25 mol % in SIL-MIX",-87 J/g
same,ΔHcalc,"[1]; 6 wt % PI, calculated for inert diluent instead of TOSU at 10 mol %",-166 J/g
same,ΔHcalc,"[1]; 6 wt % PI, calculated for inert diluent instead of TOSU at 25 mol %",-139 J/g
same,experimental ΔH as % of the calculated ΔH,[1]; 10% TOSU mix in SIL-MIX,71%
same,experimental ΔH as % of the calculated ΔH,[1]; 25% TOSU mix in SIL-MIX,59%
